We go through 33 compounds from publication PMC8709289, “Tetrahydroimidazo[4,5-c]pyridine-Based Inhibitors of Porphyromonas gingivalis Glutaminyl Cyclase” (Pharmaceuticals, 2021).

Read-outs that look alike come from different tables or passages of the source.

For data set [1], the target named is PgQC (glutaminyl cyclase from P. gingivalis) (Porphyromonas gingivalis, UniProt Q7MT37). Description: Inhibition of P. gingivalis glutaminyl cyclase, fluorogenic substrate H-Gln-AMC. The data set is classed as biochemical.
Experimental: (§2) The enzymatic activity of recombinant QCs were evaluated using the fluorogenic substrate H-Gln-AMC as described previously [25]. For inhibitor testing, compounds were added with 1% (v/v) DMSO in the reaction mixture. Inhibitory constants were determined using concentrations of H-Gln-AMC varying from 1/4 KM to 2 KM and a final concentration of QC in a range between 20 and 50 nM. Progress curves were fitted to the general equation for competitive inhibition using GraFit software (Version 7, Erithacus software Ltd., Horley, UK).
A short description of data set [2]: Cytotoxicity, cell viability in SHSY-5Y. The note with it: human, SHSY-5Y cells; 30 µM compound. The data set is classed as cell-based. From the text:
(§1) Table 3 Inhibition of related glutaminyl cyclases from bacteria and human and cytotoxicity of selected inhibitors. | column: 8k; 8t; 8w

In the next data set the target is TfQC. As to the kind of experiment: Inhibition of Tannerella forsythia glutaminyl cyclase, fluorogenic substrate H-Gln-AMC. The note with it: read-out: Ki TfQC; recombinant QC, competitive inhibition fit.
Data set [3] can be described thus: Cytotoxicity, cell viability in Hep-G2. Type of data set: cell-based. To be noted: human, Hep-G2 cells; 30 µM compound.
Excerpt: as §1

The target of a further data set is PiQC (Prevotella intermedia, UniProt A0A3R7XL21). Description: Inhibition of Prevotella intermedia glutaminyl cyclase, fluorogenic substrate H-Gln-AMC. Type of data set: biochemical. To be noted: recombinant QC, competitive inhibition fit.
In data set [4] the target is hQC (human glutaminyl cyclase) (Homo sapiens, UniProt Q16769). Description: Inhibition of human glutaminyl cyclase, fluorogenic substrate H-Gln-AMC. Type of data set: biochemical.
Experimental: (§3) The enzymatic activity of recombinant QCs were evaluated using the fluorogenic substrate H-Gln-AMC as described previously [25]. For inhibitor testing, compounds were added with 1% (v/v) DMSO in the reaction mixture.
Setting [5] is: recombinant QC, competitive inhibition fit, read-out: Ki PgQC.
Setting [6] is: recombinant QC, competitive inhibition fit, read-out: Ki hQC.

Sequence of hQC (human glutaminyl cyclase) (Q16769 29-361): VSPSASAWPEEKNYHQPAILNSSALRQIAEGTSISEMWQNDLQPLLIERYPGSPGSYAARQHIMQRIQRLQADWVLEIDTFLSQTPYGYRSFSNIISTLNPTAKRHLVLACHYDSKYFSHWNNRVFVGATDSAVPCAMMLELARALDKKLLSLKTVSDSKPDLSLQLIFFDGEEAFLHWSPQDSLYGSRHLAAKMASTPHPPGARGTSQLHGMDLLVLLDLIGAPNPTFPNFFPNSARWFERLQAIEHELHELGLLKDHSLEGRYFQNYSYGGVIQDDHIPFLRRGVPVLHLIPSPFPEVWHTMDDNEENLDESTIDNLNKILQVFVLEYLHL
Sequence of PiQC (A0A3R7XL21 entry or part of it): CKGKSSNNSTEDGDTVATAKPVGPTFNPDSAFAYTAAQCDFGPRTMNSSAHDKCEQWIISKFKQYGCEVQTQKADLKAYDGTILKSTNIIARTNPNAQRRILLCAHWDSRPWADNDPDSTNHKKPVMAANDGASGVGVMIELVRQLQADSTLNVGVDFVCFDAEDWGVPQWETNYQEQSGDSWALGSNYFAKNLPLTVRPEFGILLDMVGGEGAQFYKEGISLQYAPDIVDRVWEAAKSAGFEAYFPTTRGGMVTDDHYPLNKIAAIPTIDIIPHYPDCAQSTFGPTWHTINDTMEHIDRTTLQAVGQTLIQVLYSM
Sequence of PgQC (glutaminyl cyclase from P. gingivalis) (Q7MT37 entry or part of it): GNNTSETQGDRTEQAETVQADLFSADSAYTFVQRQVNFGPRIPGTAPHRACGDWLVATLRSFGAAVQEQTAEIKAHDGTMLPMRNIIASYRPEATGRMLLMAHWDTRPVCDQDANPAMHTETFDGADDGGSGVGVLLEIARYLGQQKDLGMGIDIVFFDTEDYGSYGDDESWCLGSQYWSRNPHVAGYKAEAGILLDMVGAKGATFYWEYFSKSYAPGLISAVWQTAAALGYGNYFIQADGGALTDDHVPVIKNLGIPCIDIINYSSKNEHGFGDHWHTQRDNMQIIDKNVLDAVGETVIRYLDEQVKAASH
Experimental for PiQC: as §3
Experimental for TfQC: as §2

`c1ccc2[nH]cnc2c1` [compound 1, benzimidazole, reference compound]: in data set [1] (setting [5]), the Ki (in general, the equilibrium dissociation constant of an inhibitor or competing ligand from its target) was found to be 32 ± 1.4 µM. On the same count and under the same terms, to `COc1cccc(C(=O)N2CCc3[nH]cnc3C2)c1` [8m, (3-Methoxyphenyl)-(3,4,6,7-tetrahydroimidazo[4,5-c]pyridin-5-yl)methanone] belongs 0.335 ± 0.006 µM; to `COc1ccc(NC(=S)NCCCn2ccnc2)cc1OC` [PQ50, reference compound], 6 ± 0.15 µM. As for `O=C(c1ccc(Cl)c(Cl)c1)N1CCc2[nH]cnc2C1` [8j, (3,4-Dichlorophenyl)-(3,4,6,7-tetrahydroimidazo[4,5-c]pyridin-5-yl)methanone], in data set [1] (setting [5]), the Ki is 0.257 ± 0.016 µM.

Consider `c1ccc(CN2CCc3[nH]cnc3C23COC3)cc1` [7c, 5-Benzylspiro[6,7-dihydro-3H-imidazo[4,5-c]pyridine-4,3′-oxetane]], for which, in data set [1] (setting [5]), the Ki came out at 1.76 ± 0.145 µM. For the compound `O=C(Cc1ccccc1)N1CCc2[nH]cnc2C1` [8b, 2-Phenyl-1-(3,4,6,7-tetrahydroimidazo[4,5-c]pyridin-5-yl)ethanone], in data set [1] (setting [5]), the Ki was 1.68 ± 0.08 µM. As to `COc1cc(C(=O)N2CCc3[nH]cnc3C2)ccc1F` [8s, (4-Fluoro-3-methoxyphenyl)-(3,4,6,7-tetrahydroimidazo[4,5-c]pyridin-5-yl)methanone], the Ki in data set [1] (setting [5]) worked out at 1.24 ± 0.113 µM.

With `CC1c2nc[nH]c2CCN1Cc1ccccc1` (stereo not shown) [7d, 5-Benzyl-4-methyl-3,4,6,7-tetrahydroimidazo[4,5-c]pyridine], in data set [1] (setting [5]), the Ki came to 3.08 ± 0.04 µM. Regarding `c1ccc(CNCCc2c[nH]cn2)cc1` [6a, N-Benzylhistamine], the “Inhibition of PgQC at 10 µM” value in data set [1] is “no inhibition @ 10 µM”. For the compound `CCCOc1cccc(C(=O)N2CCc3[nH]cnc3C2)c1` [8r, (3-Propoxyphenyl)-(3,4,6,7-tetrahydroimidazo[4,5-c]pyridin-5-yl)methanone], the Ki in data set [1] (setting [5]) was 0.78 ± 0.024 µM. On the same count and under the same terms, to `O=C(c1cccc(Cl)c1)N1CCc2[nH]cnc2C1` [8i, (3-Chlorophenyl)-(3,4,6,7-tetrahydroimidazo[4,5-c]pyridin-5-yl)methanone] belongs 0.174 ± 0.014 µM; to `c1ccc(CN2CCc3[nH]cnc3C2)cc1` [7a, 5-Benzyl-3,4,6,7-tetrahydroimidazo[4,5-c]pyridine], 0.909 ± 0.005 µM; to `c1ccc(CCN2CCc3[nH]cnc3C2)cc1` [7b, 5-(2-Phenylethyl)-3,4,6,7-tetrahydroimidazo[4,5-c]pyridine], 6.47 ± 0.4 µM. On to `O=C(c1ccc2ccccc2c1)N1CCc2nc[nH]c2C1` [8w, Naphthalen-2-yl-(3,4,6,7-tetrahydroimidazo[4,5-c]pyridin-5-yl)methanone], for which the viability (in general, a read-out of living cells in per cent, often relative to untreated cells) at 30 µM was 127% in data set [2] and 94% in data set [3]. Further, the Ki on TfQC worked out at 0.185 ± 0.01 µM; on PiQC it was 0.117 ± 0.002 µM; in data set [1] it was 0.126 ± 0.009 µM; in data set [4] (setting [6]), 0.132 ± 0.011 µM. Turning to `O=C(c1ccc2c(c1)OCCO2)N1CCc2[nH]cnc2C1` [8p, (2,3-Dihydrobenzo[b][1,4]dioxin-6-yl)(1,4,6,7-tetrahydro-5H-imidazo-[4,5-c]pyridin-5-yl)methanone], in data set [1] (setting [5]), the Ki is 1.34 ± 0.219 µM. As to `O=C(c1ccccc1)N1CCc2[nH]cnc2C1` [8a, Phenyl(3,4,6,7-tetrahydroimidazo[4,5-c]pyridin-5-yl)methanone], the Ki in data set [1] (setting [5]) was found to be 0.435 ± 0.015 µM.

For `COc1ccc(C(=O)N2CCc3[nH]cnc3C2)cc1OC` [8n, (3,4-Dimethoxyphenyl)-(3,4,6,7-tetrahydroimidazo[4,5-c]pyridin-5-yl)methanone], the Ki in data set [1] (setting [5]) was found to be 1.47 ± 0.304 µM. As to `O=C(c1ccc(F)cc1)N1CCc2[nH]cnc2C1` [8e, (4-Fluorophenyl)-(3,4,6,7-tetrahydroimidazo[4,5-c]pyridin-5-yl)methanone], the Ki in data set [1] (setting [5]) turned out to be 0.879 ± 0.008 µM. Consider `c1ccc(Cn2ccnc2)cc1` [compound 3, N-benzylimidazole, reference compound], for which the Ki in data set [1] (setting [5]) was found to be 10 ± 0.2 µM; in data set [4] it was 17 ± 3 µM. With `O=C(c1ccc(-c2ccccc2)cc1)N1CCc2[nH]cnc2C1` [8u, [1,1′-Biphenyl]-4-yl(3,4,6,7-tetrahydroimidazo[4,5-c]pyridin-5-yl)methanone], the Ki in data set [1] (setting [5]) amounted to 1.9 ± 0.071 µM. The same measure, in the same setting: then `O=C(c1cccc(F)c1)N1CCc2[nH]cnc2C1` [8f, (3-Fluorophenyl)-(3,4,6,7-tetrahydroimidazo[4,5-c]pyridin-5-yl)methanone], with 0.322 ± 0.006 µM; and `O=C(c1ccc(Cl)cc1)N1CCc2[nH]cnc2C1` [8h, (4-Chlorophenyl)-(3,4,6,7-tetrahydroimidazo[4,5-c]pyridin-5-yl)methanone], with 0.682 ± 0.025 µM. As to `COc1cc(Cl)cc(C(=O)N2CCc3[nH]cnc3C2)c1` [8t, (3-Chloro-5-methoxyphenyl)(1,4,6,7-tetrahydro-5H-imidazo[4,5-c]pyridin-5-yl)methanone], the viability at 30 µM is 128% in data set [2] and 96% in data set [3]. For the same compound, the Ki at TfQC came to 0.221 ± 0.019 µM; at PiQC it was 0.096 ± 0.012 µM; in data set [1] (setting [5]), 0.087 ± 0.006 µM; in data set [4] (setting [6]) it was 0.385 ± 0.096 µM. Turning to `O=C(c1ccc2c(c1)OCO2)N1CCc2[nH]cnc2C1` [8q, Benzo[d][1,3]dioxol-5-yl(3,4,6,7-tetrahydroimidazo[4,5-c]pyridin-5-yl)methanone], in data set [1] (setting [5]), the Ki came out at 0.56 ± 0.004 µM. Take `O=C(c1cc(Cl)cc(Cl)c1)N1CCc2nc[nH]c2C1` [8k, (3,5-Dichlorophenyl)-(3,4,6,7-tetrahydroimidazo[4,5-c]pyridin-5-yl)methanone]: the viability at 30 µM was determined as 119% in data set [2] and 92% in data set [3]. Further, the Ki on TfQC turned out to be 0.176 ± 0.003 µM; on PiQC, 0.063 ± 0.007 µM; in data set [1] (setting [5]) it was 0.1 ± 0.006 µM; in data set [4] (setting [6]) it was 0.387 ± 0.064 µM. With `c1c[nH]cn1` [compound 2, imidazole, reference compound], in data set [1] (setting [5]), the inhibition constant (Ki) turned out to be 350 ± 23 µM. In the case of `O=C(c1cccc(-c2ccccc2)c1)N1CCc2[nH]cnc2C1` [8v, [1,1′-Biphenyl]-3-yl-(3,4,6,7-tetrahydroimidazo[4,5-c]pyridin-5-yl)methanone], in data set [1] (setting [5]), the Ki was found to be 0.547 ± 0.041 µM. For the compound `COc1ccc(C(=O)N2CCc3[nH]cnc3C2)cc1` [8l, (4-Methoxyphenyl)-(3,4,6,7-tetrahydroimidazo[4,5-c]pyridin-5-yl)methanone], in data set [1] (setting [5]), the Ki was 0.833 ± 0.049 µM.

As to `c1ccc(CN2CCc3nc[nH]c3C2c2ccccc2)cc1` (stereo not shown) [7e, 5-Benzyl-4-phenyl-3,4,6,7-tetrahydroimidazo[4,5-c]pyridine], the “Inhibition of PgQC at 10 µM” value in data set [1] is recorded as “no inhibition @ 10 µM”. Turning to `COc1cc(OC)cc(C(=O)N2CCc3[nH]cnc3C2)c1` [8o, (3,5-Dimethoxyphenyl)-(3,4,6,7-tetrahydroimidazo[4,5-c]pyridin-5-yl)methanone], the Ki in data set [1] (setting [5]) came out at 0.928 ± 0.021 µM. On to `O=C(c1cc(F)c(F)c(F)c1)N1CCc2[nH]cnc2C1` [8g, (3,4,6,7-Tetrahydroimidazo[4,5-c]pyridin-5-yl)(3,4,5-trifluoro-phenyl)methanone], for which, in data set [1] (setting [5]), the Ki is 0.904 ± 0.007 µM. As for `O=C(/C=C/c1ccccc1)N1CCc2[nH]cnc2C1` [8d, (E)-3-Phenyl-1-(3,4,6,7-tetrahydroimidazo[4,5-c]pyridin-5-yl)prop-2-en-1-one], the Ki in data set [1] (setting [5]) is 1.57 ± 0.025 µM.

For the compound `O=C(CCc1ccccc1)N1CCc2[nH]cnc2C1` [8c, 3-Phenyl-1-(3,4,6,7-tetrahydroimidazo[4,5-c]pyridin-5-yl)propan-1-one], in data set [1] (setting [5]), the Ki stood at 1.75 ± 0.06 µM.
